US20160310505A1, “PROSTAMIDES FOR ENHANCEMENT OF LEPTIN PRODUCTION” (Allergan, Inc., priority 2013, published 2016)
Entries after “also recorded” stand apart in the source; their conditions may differ.

Experiments:
[1] = Once a day topical application to rats for six months (subcutaneous fat, body weight); assay type: in vivo; conditions: for subcutaneous fat: topical once a day, six months, ~10% body surface coverage; for body weight (FIG. 2): topical treatment
From the text: Bimatoprost (AGN 192024) is a synthetic prostamide which has been used in intraocular pressure lowering therapeutics such as LUMIGAN® 0.03, LUMIGAN® 0.01 and GANFORT®. […] In FIG. 1, bimatoprost was applied topically once per day for 6 months to rats. […] FIG. 2 describes the systemic exposure (topically applied) of bimatoprost by measuring blood levels of the compound after treatment. […] The in vivo action of bimatoprost is likely a dual mechanism to inhibit food intake and suppress replenishment of fat cells during normal turnover. […] Blood was drawn every 2 weeks and the serum was analyzed for leptin levels by luminex assay. […] A cafeteria diet is a high sugar and fat diet with typical “junk food”: […]

[2] = Cafeteria diet induced fatty liver in rats, liver histology; assay type: in vivo; conditions: cafeteria diet 10 weeks
From the text: Rats were fed the cafeteria diet for 10 weeks and administered bimatoprost daily. At the end of 10 weeks, livers were resected and examined by histology. […] This has important consequences in the potential treatment of non-alcoholic fatty liver disease (NAFLD).

human pre-adipocytes = experiment: Leptin production in human pre-adipocytes; assay type: cell-based; conditions: 1 μM, 8 days, vehicle DMSO
Experimental: Vehicle is DMSO, bimatoprost treatment at 1 μM. Stimulation of leptin over 8-days of bimatoprost treatment; In FIG. 1, bimatoprost was applied topically once per day for 6 months to rats. […] FIG. 2 describes the systemic exposure (topically applied) of bimatoprost by measuring blood levels of the compound after treatment. […] The in vivo action of bimatoprost is likely a dual mechanism to inhibit food intake and suppress replenishment of fat cells during normal turnover. […] Blood was drawn every 2 weeks and the serum was analyzed for leptin levels by luminex assay. […] A cafeteria diet is a high sugar and fat diet with typical “junk food”: […]

pre-adipocyte = experiment: Pre-adipocyte differentiation; assay type: cell-based
[3] = Patient use examples (transdermal patch or topical gel); assay type: in vivo, human
From the text: A person who is morbidly obese applies a bimatoprost transdermal skin patch on their arm, which uniformly releases a 5% w/w bimatoprost formulation over a thirty day period. […] The patient loses 6 pounds more than they would have otherwise lost without using the bimatoprost transdermal skin patch. A person applies a 3% w/w bimatoprost gel to their skin once a day. […] A person with elevated blood pressure has been determined by doctors to have prediabetes. In addition to being on a low fat, low sugar diet, the patient uses a transdermal bimatoprost patch which releases a 3% w/w bimatoprost formulation through the dermis and into the blood stream. […] A person is diagnosed with non-alcoholic fatty liver. The patient applies a transdermal bimatoprost patch which releases a 2% w/w bimatoprost formulation. […] A healthy person in an effort to lose weight is on a low fat diet. In order to suppress their appetite, the person applies a bimatoprost transdermal patch which continually releases 1% w/w bimatoprost for 30 days.

Leptin = experiment: Serum leptin levels by luminex assay in male rats on a cafeteria diet; assay type: in vivo
Experimental: In FIG. 1, bimatoprost was applied topically once per day for 6 months to rats. […] FIG. 2 describes the systemic exposure (topically applied) of bimatoprost by measuring blood levels of the compound after treatment. […] The in vivo action of bimatoprost is likely a dual mechanism to inhibit food intake and suppress replenishment of fat cells during normal turnover. […] Blood was drawn every 2 weeks and the serum was analyzed for leptin levels by luminex assay. […] A cafeteria diet is a high sugar and fat diet with typical “junk food”: […]

[4] = Example 1: transdermal skin patch, 5% w/w, thirty days
[5] = Example 3: prediabetes patient, transdermal patch, 3% w/w
[6] = Example 5: transdermal patch, 1% w/w, 30 days

CCNC(=O)CCC/C=C\C[C@@H]1[C@@H](/C=C/[C@@H](O)CCc2ccccc2)[C@H](O)C[C@@H]1O [bimatoprost, Bimatoprost]
subcutaneous fat at sites distal to the application site (FIG. 1) ([1]; 3% w/v bimatoprost vs vehicle): subcutaneous fat reduction at sites distal to the application site | subcutaneous fat [1]: substantial local subcutaneous fat reduction, as well as reduction at adjunct and distal sites | subcutaneous fat ([1]; listed as Bimatoprost): subcutaneous fat loss at sites distant from the application site | body weight (FIG. 2) [1]: reduction in body weight | body weight (FIG. 2) ([1]; listed as Bimatoprost): reduction in weight over time | liver lipidosis ([2]; 0.3% bimatoprost formulation daily): reduced lipidosis as compared to the control | liver lipidosis ([2]; 1% bimatoprost formulation daily): reduced lipidosis as compared to the control | cafeteria diet induced fatty liver changes (FIG. 5) ([2]; topical daily): dose-dependently decreases cafeteria diet induced fatty liver changes; also recorded: inhibited cafeteria diet induced fatty liver disease | leptin production (FIG. 3) (human pre-adipocytes): increases Leptin production; also recorded: increase in leptin production | differentiation of pre-adipocytes (pre-adipocyte): inhibit differentiation | leptin levels ([3]; Example 1: morbidly obese person, transdermal skin patch, 5% w/w, thirty days): leptin levels increase | additional weight lost versus no patch [3, 4]: 6 pounds | appetite [3, 4]: suppressed appetite | leptin levels ([3]; Example 2: 3% w/w gel on skin once a day, after several days): elevated leptin levels | appetite ([3]; Example 2: 3% w/w gel once a day): suppresses appetite | body weight ([3]; Example 2: 3% w/w gel once a day, sixty day period): maintains their weight | appetite [3, 5]: reduction in appetite | blood leptin levels [3, 5]: immediate increase in blood leptin levels | body weight [3, 5]: weight loss | lipidosis in the liver ([3]; Example 4: non-alcoholic fatty liver patient, transdermal patch, 2% w/w): reduction in lipidosis in the liver | leptin levels ([3]; Example 5: healthy female on low fat diet, transdermal patch, 1% w/w, 30 days): leptin levels rise | appetite [3, 6]: suppression of their appetite | body weight [3, 6]: greater weight loss | serum leptin levels (Leptin; male rats on cafeteria diet, 0.3% bimatoprost in BSHG formulation topical daily, p<0.01, 2-way ANOVA): elevated levels of Leptin | leptin levels (FIG. 4) (Leptin; rats on a cafeteria diet, topical daily): elevated leptin levels
